The text below walks through data of patent US9376470B2, “Polypeptide having angiogenesis-inducing activity and antibacterial activity, and use thereof for medical purposes” (FunPep Inc., priority 2008, dated 2016).

For orientation: half-life means the time needed for the level to fall by half in the phase considered. Read a low half-life as fast loss. Broadly, the amount remaining is the share of the starting amount still present when the sample was taken.

Data set [1] relates to Staphylococcus epidermidis JCM 2414. The data set is described as follows: microbe, parasite or virus in culture. As to conditions: 37° C., 20 hours; for MIC: Staphylococcus epidermidis, JCM2414. Type of data set: cell-based. On the procedure: (§1) ATP (%) of the antibacterial activity was measured in the same manner as mentioned above, and the “minimum inhibitory concentration (MIC)” was measured as follows. MIC is the lowest concentration of an agent that may inhibit the growth of a bacterium. MIC is used as a parameter for the efficacy of an antibacterial agent, for the strength of bacterial sensitivity, or the like. The bacteria can grow (proliferate) when the concentration is not higher than MIC, and cannot grow when the concentration is higher than MIC. […] (CLSI), but, in this Example, its measurement was carried out by a broth microdilution method in accordance with “M100-S17/M7-A7” (Performance Standards for Antimicrobial Susceptibility Testing; Seventeenth Informational Supplement, Vol. 27 No. 1) published by CLSI on January, 2007. That is, sensitivity test of agents was carried out using a microtiter plate or test tubes. The bacteria were cultured in the liquid media for 4 to 6 hours, and thereafter absorbances at A600 were measured. Bacterial suspensions were diluted with Mueller-Hinton broth (MHB) according to McFarland #0.5. Each strain was added so as to attain about 10^5 CFU/ml (final concentration). Each peptide was prepared to an optional concentration, and the solutions were serially diluted from the concentration. The polypeptide at each concentration stage was added to a microplate or test tubes, and the bacterial suspension was added thereto. […] The plate was incubated at 37° C. for 20 hours, the lowest concentration where bacterial growth was inhibited was regarded as the minimum inhibitory concentration. With respect to each strain, Escherichia coli: ATCC 25922 (Escherichia coli ATCC 25922), Pseudomonas aeruginosa: ATCC 27853 (Pseudomonas aeruginosa ATCC 27853), Staphylococcus aureus: ATCC29213 (Staphylococcus aureus ATCC29213), Klebsiella pneumoniae: JCM 1662 (Klebsiella pneumoniae JCM 1662), enterobacteria (1): JCM 1232 (Enterobacter cloacae JCM 1232), enterobacteria (2): JCM 1235 (Enterobacter aerogenes JCM 1235), and Staphylococcus epidermidis: JCM 2414 (Staphylococcus epidermidis JCM 2414), were used. […] As the concentrations of the agents in ATP assay, the concentrations as described in the Tables were used.

The nature of a further data set: in vitro. Type of data set: in vitro ADME, rat. The conditions noted are these: for half-life: rat serum, 37° C. The procedure:
Then, the stability of five polypeptides SR-1 to 5 in serum was evaluated.
In human serum (purchased from KAC Co., Ltd.), or in rat serum obtained by collecting blood from a rat, then leaving the collected blood to stand at room temperature followed by centrifugation, each of the peptides was dissolved so as to attain a final concentration of 500 μg/mL, and the obtained solutions were left to stand at 37° C. After leaving to stand for 10 min or 30 min or 60 min, these solutions were subjected to HPLC chromatogram analysis to detect peaks of the decomposition products, and calculate the ratio of the concentration of the peptides which remained in the solutions relative to the starting concentration. In addition, the half-lives of the peptides in serum were also calculated.
HPLC chromatogram analysis conditions are as follows.

Data set [2] has as its system Crl:CD (SD) rats, cut wound. The experiment in a line: Effect to heal cut wounds, rat cut-wound model. The conditions noted are these: for wound closing tension: 10, 100 and 1000 μg/mL, 50 μL dropwise once a day, measured on day 6; for scars of cut wounds / cicatrization by visual observation, compared with the bFGF formulation: rat cut-wound model, data not shown. Type of data set: in vivo. On the procedure:
Next, using rat cut-wound model, the effect of the five polypeptides SR-1 to 5 to heal cut wounds in vivo was evaluated. As described in Tetsuaki Yamaura et al. (Oyo Yakuri (Pharmacometrics) 22, 565-579 (1981)), the rat cut-wound model was produced and the wound closing tension was measured. That is, a cut wound of 30 to 36 mm was made on the back of Crl:CD (SD) rats (male, 7-week old, obtained from Charles River Laboratories Japan, Inc.) using a safety razor, and sutured at 3 points equally spaced. The day when this surgical treatment was applied was regarded as […] (day 0). […] Additions of 50 μL physiological saline were regarded as negative controls (Saline). […] The sutures were removed day 3, and the wound closing tension was measured on day 6.

The test system of data set [3] is human vascular endothelial cells and fibroblast cells (co-culture). The experiment in a line: Lumen formation with angiogenesis kit KZ-1000 (section 7). Type of data set: cell-based. As to conditions: for ability to form lumina: 0.5, 2.5 and 10 μg/mL; for The Area of Lumina (relative value, negative control as 100) / The Length of Lumina (relative value, negative control as 100): day 11. The procedure: Using an angiogenesis kit available from KURABO […] LTD. (Product No.: KZ-1000), lumen formation by the polypeptides was evaluated. Vascular endothelial growth factor A (VEGF-A) as a positive control, and polypeptide-free, unstimulated group as a negative control, were used.
Using a special medium for angiogenesis which was attached to the kit, each polypeptide was prepared such that the concentration thereof was respectively 0.5, 2.5 and 10 μg/mL. To a 24-well plate in which cells were plated (the cells were those obtained by co-culturing human vascular endothelial cells and fibroblast cells at an optimum concentration) which was attached to the kit, the special medium for angiogenesis containing each polypeptide was added, and the cells were cultured at 37° C. under 5% CO2. The medium was replaced with a medium containing the same additive on day 4, day 7 and day 9 of culture. On day 11 from the beginning of the culture, staining was performed using a kit for staining lumina (for CD31 antibody staining) according to the following procedure.
The media were removed, and washing was performed with Dulbecco's phosphate buffered saline (PBS(−)). Thereafter, ice-cooled 70% ethanol was added to the plate, and the cells were fixed. Each well was washed with a blocking solution (Dulbecco's phosphate buffered saline (PBS(−)) containing 1% BSA). To each well, 0.5 mL of the primary antibody for CD31 staining (mouse anti-human CD31 antibody) 4000-fold diluted with the blocking solution was added, and then the plate was incubated for 60 minutes at 37° C. After the completion of the incubation, each well was washed totally 3 times with 1 mL of the blocking solution. Then, 0.5 mL of the secondary antibody solution (goat anti-mouse IgG/alkaline phosphatase conjugate) 500-fold diluted with the blocking solution was added to each well. The plate was incubated for 60 minutes at 37° C., and thereafter each well was washed 3 times with 1 mL of distilled water. During that period, 2 tablets of BCIP/NBT were dissolved into distilled water, and the obtained solution was filtered through a filter having a pore size of […] to prepare a substrate solution. To each well, 0.5 mL of the prepared BCIP/NBT substrate solution was added, and the plate was incubated at 37° C. until the lumina turned to deep purple (typically for 5-10 minutes). After the completion of the incubation, each well was washed 3 times with 1 mL of distilled water. After washing, the washing solution was removed by aspiration, and the plate was left to stand and dry naturally. After drying, photographs of each well were taken under a microscope.
Each of the obtained images was quantified using an angiogenesis quantification software. The area and length of formed lumina observed in each visual field were measured on the basis of the scale of an angiogenesis quantification software available from KURABO […] LTD. (angiogenesis quantification software Ver 1.0), and evaluated on the basis of the ratio of the area or length of polypeptide-containing groups relative to the area or length of the negative control group.

The test system of data set [4] is Staphylococcus aureus ATCC29213. The experiment in a line: microbe, parasite or virus in culture. Type of data set: cell-based. As to conditions: 37° C., 20 hours. The procedure:
as §1

Each structure is given as a SMILES string. In brackets after ≈: the same amount, converted by molar mass. Peptide text beside a SMILES is read from it.

Turning to `CC[C@H](C)[C@H](NC(=O)[C@H](CC(C)C)NC(=O)[C@H](CCCCN)NC(=O)[C@H](CC(C)C)NC(=O)[C@@H](N)CCSC)C(=O)N[C@@H](Cc1ccccc1)C(=O)N[C@@H](CC(C)C)C(=O)N[C@@H](Cc1c[nH]cn1)C(=O)N[C@@H](CCCNC(=N)N)C(=O)N[C@@H](CC(C)C)C(=O)N[C@@H](CCCCN)C(=O)N[C@@H](CCCNC(=N)N)C(=O)N[C@@H](CCSC)C(=O)N[C@@H](CCCNC(=N)N)C(=O)N[C@@H](CCCCN)C(=O)N[C@@H](CCCNC(=N)N)C(=O)N[C@@H](CC(C)C)C(=O)N[C@@H](CCCCN)C(=O)N[C@@H](CCCNC(=N)N)C(=O)N[C@@H](CCCCN)C(=O)O` [SR-1] (H-MLKLIFLHRLKRMRKRLKRK-OH; N-terminus assumed), the “MIC Staphylococcus epidermidis” value in data set [1] is on record as 128< μg/mL. For the same molecule, in “in vitro”, the “decomposition in rat serum” value is “completely decomposed” and the half-life was determined as 3 min. For the same molecule, in the data set “in vitro” (rat, serum), the fraction remaining at 0.5 h, 500 μg/mL was 0% and the share remaining at 1 h, 500 μg/mL was 0%. Besides, in data set [2], the wound closing tension entry is given as “effect of increasing the wound closing tension” and the “scars of cut wounds / cicatrization by visual observation, compared with the bFGF formulation” value is given as “cicatrization was hardly observed”. Moreover, the “ability to form lumina” value in data set [3] is on record as “high ability to form lumina”. Moreover, in data set [3] (polypeptide 0.5 μg/mL), the “The Area of Lumina (relative value, negative control as 100)” value is 94.6 and the “The Length of Lumina (relative value, negative control as 100)” value worked out at 97.4. For the same molecule, in data set [3] (polypeptide 10 μg/mL), the “The Area of Lumina (relative value, negative control as 100)” value came out at 156.6 and the “The Length of Lumina (relative value, negative control as 100)” value amounted to 149.5.
As to `C[C@@H](O)[C@H]1C(=O)N2C(C(=O)O)=C(S[C@@H]3CN[C@H](C(=O)N(C)C)C3)[C@H](C)[C@H]12` [MEPM, meropenem, reference compound], the figures for the MIC in data set [4] and in data set [1] were 0.03 to 0.12 µg/mL (≈ 0.0782 to 0.313 µM) and 0.125 µg/mL (≈ 0.326 µM), respectively.
Regarding `CC(C)C[C@H](NC(=O)[C@H](CCCCN)NC(=O)[C@H](CCCNC(=N)N)NC(=O)[C@H](CCCCN)NC(=O)[C@H](CC(C)C)NC(=O)[C@H](CCCNC(=N)N)NC(=O)[C@H](CCCCN)NC(=O)[C@H](CCCNC(=N)N)NC(=O)[C@H](CC(C)C)NC(=O)[C@H](CCCNC(=N)N)NC(=O)[C@H](CCCNC(=N)N)NC(=O)[C@H](CCCCN)NC(=O)[C@H](CC(C)C)NC(=O)[C@H](CCCNC(=N)N)NC(=O)[C@H](Cc1c[nH]cn1)NC(=O)[C@H](CC(C)C)NC(=O)[C@H](Cc1ccccc1)NC(=O)[C@H](CCCNC(=N)N)NC(=O)[C@H](CC(C)C)NC(=O)[C@@H](N)CCC(=O)O)C(=O)N[C@@H](CCCNC(=N)N)C(N)=O` [SR-2] (H-ELRFLHRLKRRLRKRLKRKLR-NH2; N-terminus assumed), in “in vitro”, the “decomposition in rat serum” value is reported as 35-55% and the half-life was 75 min. For the same molecule, in the data set “in vitro” (rat, serum), the fraction remaining at 10 min, 500 μg/mL amounted to 69% and the amount remaining at 1 h, 500 μg/mL stood at 51.7%. Besides, the “scars of cut wounds / cicatrization by visual observation, compared with the bFGF formulation” value in data set [2] is listed as “cicatrization was hardly observed”. Also, in data set [3], the “ability to form lumina” value was “high ability to form lumina”. Moreover, in data set [3] (polypeptide 0.5 μg/mL), the “The Area of Lumina (relative value, negative control as 100)” value is reported as 110.7 and the “The Length of Lumina (relative value, negative control as 100)” value amounted to 108.9. In data set [3] (polypeptide 10 μg/mL), the “The Area of Lumina (relative value, negative control as 100)” value was found to be 138.0 and the “The Length of Lumina (relative value, negative control as 100)” value was 129.9.
For the molecule `CSCC[C@H](NC(=O)[C@H](CCCNC(=N)N)NC(=O)[C@@H](N)CCCCN)C(=O)N[C@@H](CCCNC(=N)N)C(=O)N[C@@H](CCCCN)C(=O)N[C@@H](CCCNC(=N)N)C(=O)N[C@@H](CC(C)C)C(=O)N[C@@H](CCCCN)C(=O)N[C@@H](CCCNC(=N)N)C(=O)N[C@@H](CCCCN)C(=O)N[C@@H](CC(C)C)C(=O)N[C@@H](CCCNC(=N)N)C(=O)N[C@@H](CC(C)C)C(=O)N[C@@H](Cc1c[nH]c2ccccc12)C(=O)N[C@@H](Cc1c[nH]cn1)C(=O)N[C@@H](CCCNC(=N)N)C(=O)N[C@@H](CCCCN)C(=O)N[C@@H](CCCNC(=N)N)C(=O)N[C@@H](Cc1ccc(O)cc1)C(=O)N[C@@H](CCCCN)C(=O)O` [SR-5] (H-KRMRKRLKRKLRLWHRKRYK-OH; N-terminus assumed), in the data set “in vitro”, the “decomposition in rat serum” value is reported as “completely decomposed” and the half-life worked out at 4 min. In “in vitro” (rat, serum), this molecule gave a fraction remaining at 0.5 h, 500 μg/mL of 0% and a share remaining at 1 h, 500 μg/mL of 0%. Also, in data set [2], the wound closing tension entry is listed as “effect of increasing the wound closing tension”. Besides, in data set [3] (polypeptide 0.5 μg/mL), the “The Area of Lumina (relative value, negative control as 100)” value came out at 103.4 and the “The Length of Lumina (relative value, negative control as 100)” value is 106.2. In data set [3] (polypeptide 10 μg/mL), the “The Area of Lumina (relative value, negative control as 100)” value was found to be 107.7 and the “The Length of Lumina (relative value, negative control as 100)” value is 106.8.
Regarding `Cc1onc(-c2ccccc2)c1C(=O)N[C@@H]1C(=O)N2[C@@H]1SC(C)(C)[C@@H]2C(=O)O` [OX, oxacillin, reference compound], the MIC in data set [4] and in data set [1] was 0.12 to 0.5 µg/mL (≈ 0.299 to 1.25 µM) in each case.
Take `NC[C@H]1O[C@H](O[C@H]2[C@H](O)[C@@H](O[C@H]3O[C@H](CO)[C@@H](O)[C@H](N)[C@H]3O)[C@H](N)C[C@@H]2N)[C@H](N)C[C@@H]1O` [TOB, tobramycin, reference compound]: the MIC was 0.12 to 1 µg/mL (≈ 0.257 to 2.14 µM) in data set [4] and 1 µg/mL (≈ 2.14 µM) in data set [1].
